# Columns and labels:
# [1] = system: hepatic glucose production; experiment: Pyruvate tolerance and glycerol tolerance tests; type: in vivo, mouse
# Experimental: Pyruvate tolerance and glycerol tolerance tests were performed in ob ob and DIO mice after overnight fasting at 1.5 g kg^−1 dose using sodium pyruvate (0.2 g/ml) or 20% glycerol solution in PBS. Insulin tolerance test and glucose tolerance test were performed in ob ob mice after 8 h fasting. 2 U kg^−1 insulin (Humulin R) and 0.5 g kg^−1 glucose were used respectively. Blood glucose from tail bleeding was monitored by a OneTouch glucometer.
# 3T3-L1 adipocytes = experiment: In vitro lipolysis assay (FFA release), 3T3-L1 adipocytes; type: cell-based
# Experimental: Differentiation of pre-adipocytes were based on previously published methods (Bunnell et al., 2008). Briefly, 3T3-L1 pre-adipocytes were grown to full confluence in DMEM, 10% FBS (GemCell, 100-500), 10 mM HEPES and antibiotic-antimycotic (full growth media). 2 days later, differentiation was induced by replacing the media with 1 μM dexamethasone, 1 μM rosiglitazone, 500 μM IBMX and 5 μg/ml insulin in full growth media 2 days later after reaching full confluence. Two days later media was replaced by differentiation induction media with 1 μM rosiglitazone and 5 μg/ml insulin for 4 days with media change after 2 days. Cells were kept in maintenance medium (full growth media with 5 μg/ml insulin) for 4 more days for full differentiation. For differentiation of mouse SVF derived adipocytes, the protocol was same except DMEM/F12 (10565018, ThermoFisher) was used as base media and initial differentiation induction media was kept for 3 days. For differentiation of human subcutaneous adipocytes, protocol and media from the manufacturer (C-12735, C-39437, Promocell) were used. Dexamethasone was omitted from the media in the last 3 days before performing experiments. Both mouse and human SVF derived adipocytes were differentiated in collagen coated plates (A1142802, ThermoFisher).
# For in vitro lipolysis assay, cells were washed with PBS and media were changed to full growth media 1 day before experiment. Cells were serum starved for 2 h and placed in KRBH buffer (30 mM HEPES, 120 mM NaCl, 4 mM KH2PO4, 1 mM MgSO4, 0.75 mM CaCl2), and 10 mM NaHCO3) with 2% fatty acid free BSA and 5 mM glucose. FGF1 was added 10 min before induction of lipolysis with 100 nM isoprotenol (ISO). Inhibitors were added 30 min prior to FGF1 treatment unless otherwise noted. Media were collected and cells were lysed in protein extraction buffer. FFAs were measured in the media using a commercial kit (Wako-NEFAHR2) and normalized to protein concentration. For ex vivo lipolysis, the assay was modified from a published protocol (Funicello et al., 2007). Briefly, approximately 0.1 gram of adipose tissue was excised, weighed and kept in cold PBS until treatment and control tissues were collected. Tissues were cut into small pieces and incubated in same KRBH buffer as described above for 4 h. FFAs were measured and normalized by the explant weights.
# [2] = system: HSL phosphorylation at S660; experiment: Western blot of pHSL-S660 in gWAT after injection; type: in vivo, mouse; details: 30 min after FGF1 injection 0.5 mg/kg
# Experimental: Tissues were lysed in cold lysis buffer (50 mM Tris, pH 7.5, 150 mM NaCl, 1% NP40, 0.5% NaDoc, 0.1% SDS, 5% glycerol, 1 mM EDTA, protease and phosphatase inhibitors (complete and PhosSTOP (Roche)) by homogenization by bead-beater for 30 s. Samples were cleared for 10 min at 18,000 g at 4° C. and the middle clear phase was transferred to new tubes. A second 30 min centrifugation was performed and the middle clear phase was transferred to new tubes. Five ul protein extract was used for BCA assay to determine protein concentration. Samples were boiled in Laemmli buffer. SDS-PAGE and blotting were performed using gradient gels and Trans-Blot Turbo Transfer System (Bio-Rad). Antibodies used were PDE4D (12918-1-AP, Proteintech), pHSL-660 (4126S, Cell signaling), HSL (4107S, Cell Signaling), tubulin (CP06, Millipore Sigma), and GFP (A01388, GenScript). PDE4D3-pS44 phospho-specific antibody was generated using PDE4D3-S44 FRRHpSWISFDVDNGTSAGR peptide (SEQ ID NO: 20) (Mackenzie et al., 2002) by Pocono Rabbit Farm, using 70-day rabbit antibody production protocol and purified via affinity purification. Primary antibodies were incubated for 2 h at room temperature (RT) or overnight (ON) at 4° C. Blots were developed using SuperSignal West Pico PLUS Chemiluminescent Substrate (ThermoFisher Scientific) and imaged with BioRad GelDoc system.
# [3] = system: mouse SVF-derived adipocytes; experiment: In vitro lipolysis assay (FFA release), mouse SVF-derived adipocytes; type: cell-based
# Experimental: Isolation of adipose stromal fraction (SVF) was performed as published previously with slight modifications (Bapat et al., 2015). Inguinal adipose (iWAT) tissues were used for isolation of SVF due their ability to differentiate to mature adipocytes. Briefly, adipose tissues were dissected, washed in cold PBS and cut into small pieces in digestion buffer (100 mM HEPES, 120 mM NaCl, 50 mM KCl, 1 mM CaCl2), 1.5% fatty acids free BSA, 1 mg/ml collagenase I). Samples were dissociated in 37° C. water bath with shaking for 30-60 min with occasional monitoring to prevent over digestion. Tissue debris were filtered by 100 μm cell strainer and SVF was collected by centrifugation at 500 g for 5 minutes. Cell pellet was washed once by PBS and filtered with 40 μm cell strainer. Red blood cells were lysed with Red blood cell lysis buffer (BioLegend) according to manufacturer's instructions. The remaining cells were re-suspended and cultured in DMEM/F12 with 20% FBS (GemCell, 100-500) at 37° C., 5% CO2.
# Differentiation of pre-adipocytes were based on previously published methods (Bunnell et al., 2008). Briefly, 3T3-L1 pre-adipocytes were grown to full confluence in DMEM, 10% FBS (GemCell, 100-500), 10 mM HEPES and antibiotic-antimycotic (full growth media). 2 days later, differentiation was induced by replacing the media with 1 μM dexamethasone, 1 μM rosiglitazone, 500 μM IBMX and 5 μg/ml insulin in full growth media 2 days later after reaching full confluence. Two days later media was replaced by differentiation induction media with 1 μM rosiglitazone and 5 μg/ml insulin for 4 days with media change after 2 days. Cells were kept in maintenance medium (full growth media with 5 μg/ml insulin) for 4 more days for full differentiation. […]
# For in vitro lipolysis assay, cells were washed with PBS and media were changed to full growth media 1 day before experiment. […] FFAs were measured in the media using a commercial kit (Wako-NEFAHR2) and normalized to protein concentration. […] FFAs were measured and normalized by the explant weights.
# [4] = overnight fasted ob/ob mice, 2 h after FGF1 0.5 mg/kg
substance,measurement,setting,value
"FGF1: Recombinant fibroblast growth factor 1 protein, dissolved in PBS, injected subcutaneously",pyruvate and glycerol tolerance tests,"[1]; DIO mice, 2 h after FGF1 0.5 mg/kg",replicated in DIO mice
same,suppression of pyruvate utilization,[1]; adR1WT vs adR1KO DIO mice,dependent on adipocyte FGFR1 expression
same,glycerol tolerance test,[1]; [4],no differences
same,pyruvate tolerance test (glucose synthesis from pyruvate),[1]; [4],markedly reduced ability to synthesize glucose from pyruvate
same,FGF1 suppression of lipolysis under FGFR1 inhibition,3T3-L1 adipocytes; FGF1 100 ng/ml with FGFR1 inhibitor PD 173074 1 μM,blocked by FGFR1 inhibition
same,FGF1-induced suppression of lipolysis under PDE3B inhibition,3T3-L1 adipocytes; FGF1 100 ng/ml with PDE3 inhibitors (cilostamide or quazinone 10 μM),did not impair
same,anti-lipolytic activity of FGF1 with selective inhibitors of PDE4,3T3-L1 adipocytes; FGF1 100 ng/ml with roflumilast 2 μM or cilomulast 10 μM,blocked by selective inhibitors of PDE4
same,isoproterenol-induced lipolysis,"3T3-L1 adipocytes; dose response of FGF1, ISO 100 nM, 4 h",dose-dependently suppressed isoproterenol-induced lipolysis
same,pHSL levels in gWAT,[2],decreased
same,anti-lipolytic activity of FGF1 with selective inhibitors of PDE4,[3]; FGF1 100 ng/ml with roflumilast 2 μM,blocked by selective inhibitors of PDE4
same,basal and isoproterenol-induced lipolysis,"[3]; FGF1 100 ng/ml, 10 min before ISO 1 nM",acutely suppressed basal and isoproterenol-induced lipolysis
same,isoproterenol-induced lipolysis in adipocytes derived from PDE4D KO SVF,"[3]; FGF1 100 ng/ml, ISO 1 nM",insensitive to FGF1 treatment
